Results taken from ChEMBL document CHEMBL1201862, “PubChem BioAssay data set” (2004).
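Results reflect a 48-hour exposure of cells in 96-well plates to compound at five concentrations. Abbreviation: GI50, concentration required for 50% inhibition of growth.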 Calls of active or inactive are those of the source. Rule as the data show it: active = GI50 up to about 1.1 µM and inactive = higher.

Assays:
Test in all cases: DTP human tumour cell line panel, 48 h
U-251 = test system: U-251
A549 = test system: A549
HT-29 = test system: HT-29
DMS-273 = test system: DMS-273
EKVX = test system: EKVX
NCI-H23 = test system: NCI-H23
SNB-19 = test system: SNB-19
SF-268 = test system: SF-268
SNB-75 = test system: SNB-75
HCT-116 = test system: HCT-116
A498 = test system: A498
SK-MEL-28 = test system: SK-MEL-28
HL-60 = test system: HL-60
SK-MEL-2 = test system: SK-MEL-2
SK-MEL-5 = test system: SK-MEL-5
UO-31 = test system: UO-31
MCF7 = test system: MCF7
UACC-62 = test system: UACC-62
M19-MEL = test system: M19-MEL
OVCAR-8 = test system: OVCAR-8
HOP-62 = test system: HOP-62
DLD-1 = test system: DLD-1
SNB-78 = test system: SNB-78
HCC 2998 = test system: HCC 2998
DMS-114 = test system: DMS-114
RPMI-8226 = test system: RPMI-8226
OVCAR-4 = test system: OVCAR-4
Malme-3M = test system: Malme-3M
CCRF-CEM = test system: CCRF-CEM
KM12 = test system: KM12
LOX IMVI = test system: LOX IMVI
SF-295 = test system: SF-295
NCI-H226 = test system: NCI-H226
OVCAR-5 = test system: OVCAR-5
SK-OV-3 = test system: SK-OV-3
IGROV-1 = test system: IGROV-1
HOP-92 = test system: HOP-92
HOP-18 = test system: HOP-18
RXF 393 = test system: RXF 393
K562 = test system: K562
NCI-H460 = test system: NCI-H460
COLO 205 = test system: COLO 205
SW-620 = test system: SW-620
SF-539 = test system: SF-539
KM-20L2 = test system: KM-20L2
SN12C = test system: SN12C
NCI-H522 = test system: NCI-H522
HCT-15 = test system: HCT-15
MOLT-4 = test system: MOLT-4
XF498 = test system: XF498
OVCAR-3 = test system: OVCAR-3
UACC-257 = test system: UACC-257
NCI/ADR-RES = test system: NCI/ADR-RES

For CCC(C)C1NC(=O)CNC(=O)C2Cc3c([nH]c4cc(O)ccc34)[S+]([O-])CC(NC(=O)CNC1=O)C(=O)NC(CC(=O)O)C(=O)N1CC(O)CC1C(=O)NC(C(C)C(O)CO)C(=O)N2 (stereo not drawn), the GI50 (U-251) was 3830 nM (inactive), the GI50 (A549) was 4580 nM (inactive) and the GI50 (HT-29) was 28800 nM (inactive). For the same molecule, the GI50 (DMS-273) was 2230 nM (inactive), the GI50 (EKVX) was 1980 nM (inactive) and the GI50 (NCI-H23) was 1830 nM (inactive). For the same molecule, the GI50 (SNB-19) was 1300 nM (inactive), the GI50 (SF-268) was 1640 nM (inactive) and the GI50 (SNB-75) was 918 nM (active). The GI50 (HCT-116) was 6370 nM (inactive), the GI50 (A498) was 2830 nM (inactive) and the GI50 (SK-MEL-28) was 2540 nM (inactive). For the same molecule, the GI50 (HL-60) was 28600 nM (inactive), the GI50 (SK-MEL-2) was 2080 nM (inactive) and the GI50 (SK-MEL-5) was 2430 nM (inactive). For the same molecule, the GI50 (UO-31) was 1550 nM (inactive), the GI50 (MCF7) was 5120 nM (inactive) and the GI50 (UACC-62) was 2350 nM (inactive). For the same molecule, the GI50 (M19-MEL) was 3240 nM (inactive), the GI50 (OVCAR-8) was 3700 nM (inactive) and the GI50 (HOP-62) was 662 nM (active). For the same molecule, the GI50 (DLD-1) was 12400 nM (inactive), the GI50 (SNB-78) was 664 nM (active) and the GI50 (HCC 2998) was 653 nM (active). For the same molecule, the GI50 (DMS-114) was 759 nM (active), the GI50 (RPMI-8226) was 20300 nM (inactive) and the GI50 (OVCAR-4) was 2070 nM (inactive). The GI50 (Malme-3M) was 1190 nM (inactive), the GI50 (CCRF-CEM) was 6240 nM (inactive) and the GI50 (KM12) was 6460 nM (inactive). For the same molecule, the GI50 (LOX IMVI) was 2380 nM (inactive), the GI50 (SF-295) was 1510 nM (inactive) and the GI50 (NCI-H226) was 1600 nM (inactive). The GI50 (OVCAR-5) was 16100 nM (inactive), the GI50 (SK-OV-3) was 13200 nM (inactive) and the GI50 (IGROV-1) was 4390 nM (inactive). For the same molecule, the GI50 (HOP-92) was 1680 nM (inactive), the GI50 (HOP-18) was 25800 nM (inactive) and the GI50 (RXF 393) was 579 nM (active). For the same molecule, the GI50 (K562) was 3930 nM (inactive), the GI50 (NCI-H460) was 2110 nM (inactive) and the GI50 (COLO 205) was 1410 nM (inactive). The GI50 (SW-620) was 36200 nM (inactive), the GI50 (SF-539) was 450 nM (active) and the GI50 (KM-20L2) was 31600 nM (inactive). The GI50 (SN12C) was 4630 nM (inactive), the GI50 (NCI-H522) was 776 nM (active) and the GI50 (HCT-15) was 10400 nM. The GI50 (MOLT-4) was 3720 nM (inactive), the GI50 (XF498) was 1160 nM (inactive) and the GI50 (OVCAR-3) was 2470 nM (inactive). The GI50 (UACC-257) was 2440 nM (inactive) and the GI50 (NCI/ADR-RES) was 3970 nM (inactive).
